Type in all cases: binding
In assay [1] the target is T1, HeLa cell extract proteins (Homo sapiens, UniProt Q14978).
T1 construct: endogenous in cells; host or cells: HeLa cell extract
T1 sequence (Q14978 1-699): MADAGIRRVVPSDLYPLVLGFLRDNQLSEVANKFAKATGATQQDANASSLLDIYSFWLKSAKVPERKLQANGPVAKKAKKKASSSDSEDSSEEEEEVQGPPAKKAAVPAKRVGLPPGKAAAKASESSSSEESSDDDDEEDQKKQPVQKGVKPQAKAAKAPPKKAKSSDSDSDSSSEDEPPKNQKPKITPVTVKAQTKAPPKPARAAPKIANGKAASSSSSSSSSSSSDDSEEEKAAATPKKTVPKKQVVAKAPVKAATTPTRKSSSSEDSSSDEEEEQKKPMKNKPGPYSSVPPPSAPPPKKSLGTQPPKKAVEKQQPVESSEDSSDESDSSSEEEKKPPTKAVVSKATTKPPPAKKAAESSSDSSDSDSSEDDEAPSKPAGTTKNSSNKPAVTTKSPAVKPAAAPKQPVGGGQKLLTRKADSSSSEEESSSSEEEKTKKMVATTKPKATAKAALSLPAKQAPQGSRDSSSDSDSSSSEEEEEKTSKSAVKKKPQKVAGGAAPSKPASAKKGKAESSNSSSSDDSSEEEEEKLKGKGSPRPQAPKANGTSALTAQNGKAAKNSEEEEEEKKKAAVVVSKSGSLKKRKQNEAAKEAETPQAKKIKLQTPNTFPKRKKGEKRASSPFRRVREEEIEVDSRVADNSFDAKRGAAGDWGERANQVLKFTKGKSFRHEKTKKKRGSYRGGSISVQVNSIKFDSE

For assay [2], the target named is T2, HeLa cell extract proteins (Homo sapiens, UniProt P05387).
T2 construct: endogenous in cells; host or cells: HeLa cell extract

For assay [3], the target named is T3, HeLa cell extract proteins (Homo sapiens, UniProt Q9H3U1).
T3 construct: endogenous in cells; host or cells: HeLa cell extract
T3 sequence (Q9H3U1 1-944): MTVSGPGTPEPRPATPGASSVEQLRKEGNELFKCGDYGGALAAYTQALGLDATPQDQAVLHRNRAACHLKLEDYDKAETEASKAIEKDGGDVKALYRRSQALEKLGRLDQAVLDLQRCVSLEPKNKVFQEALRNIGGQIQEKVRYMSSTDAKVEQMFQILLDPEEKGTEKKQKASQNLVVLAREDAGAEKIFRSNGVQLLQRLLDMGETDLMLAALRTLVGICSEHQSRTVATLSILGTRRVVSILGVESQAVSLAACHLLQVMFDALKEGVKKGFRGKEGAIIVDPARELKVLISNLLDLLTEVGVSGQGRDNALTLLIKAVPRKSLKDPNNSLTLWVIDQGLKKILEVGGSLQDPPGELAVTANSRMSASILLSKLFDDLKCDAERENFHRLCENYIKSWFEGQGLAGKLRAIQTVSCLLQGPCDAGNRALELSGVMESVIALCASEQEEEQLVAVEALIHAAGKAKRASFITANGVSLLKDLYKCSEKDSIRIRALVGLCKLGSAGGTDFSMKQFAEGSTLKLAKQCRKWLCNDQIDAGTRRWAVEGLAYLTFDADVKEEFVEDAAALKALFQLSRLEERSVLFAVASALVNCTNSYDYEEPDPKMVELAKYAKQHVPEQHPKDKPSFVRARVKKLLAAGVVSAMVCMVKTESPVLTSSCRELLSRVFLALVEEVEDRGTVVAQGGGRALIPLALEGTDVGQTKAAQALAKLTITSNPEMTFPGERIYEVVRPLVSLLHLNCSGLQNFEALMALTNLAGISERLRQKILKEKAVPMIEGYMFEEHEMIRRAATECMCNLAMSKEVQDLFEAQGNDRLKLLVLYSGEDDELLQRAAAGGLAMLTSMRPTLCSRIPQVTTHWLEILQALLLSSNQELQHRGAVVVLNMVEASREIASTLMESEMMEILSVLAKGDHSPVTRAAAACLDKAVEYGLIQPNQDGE

Assay [4] deals with T4, HeLa cell extract proteins (Homo sapiens, UniProt Q13011).
T4 construct: endogenous in cells; host or cells: HeLa cell extract
T4 sequence (Q13011 34-328): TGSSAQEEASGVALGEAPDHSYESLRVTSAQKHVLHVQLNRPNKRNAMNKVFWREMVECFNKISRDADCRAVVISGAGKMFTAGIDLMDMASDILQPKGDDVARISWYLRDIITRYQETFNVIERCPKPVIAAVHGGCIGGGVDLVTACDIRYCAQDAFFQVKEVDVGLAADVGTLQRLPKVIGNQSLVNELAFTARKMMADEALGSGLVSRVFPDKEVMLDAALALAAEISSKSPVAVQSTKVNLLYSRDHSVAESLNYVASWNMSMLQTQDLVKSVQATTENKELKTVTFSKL

Like-named read-outs stand apart in the source and are kept apart here.

T2 sequence (P05387 whole entry): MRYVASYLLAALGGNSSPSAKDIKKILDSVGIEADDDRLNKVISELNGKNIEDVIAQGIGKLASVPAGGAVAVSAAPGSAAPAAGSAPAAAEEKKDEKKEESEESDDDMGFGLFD

On to `Nc1nc2cccc(-c3ccccc3)c2n1Cc1ccc(Cl)c(Cl)c1` [compound 3], for which the “fold changes relative to vehicle control” value is 0.96 in assay [1] (protein NOLC1, HeLa); 0.81 in assay [2] (protein RPLP2, HeLa); 0.97 in assay [3] (protein UNC45A, HeLa); 1 in assay [4] (HeLa, protein ECH1).
Regarding `NCCOCCOCC(=O)Nc1nc2ncc(CNc3ccc(C(=O)NC(CCC(=O)O)C(=O)O)cc3)nc2c(=O)[nH]1` (stereo not shown) [compound 6], the “fold changes relative to vehicle control” value in assay [1] (protein NOLC1, HeLa) was 0.96; in assay [2] (protein RPLP2, HeLa), 1.04; in assay [3] (HeLa, protein UNC45A), 1.16; in assay [4] (HeLa, protein ECH1), 0.96.
On to `Nc1nc2[nH]cc(CCc3ccc(C(=O)N[C@@H](CCC(=O)O)C(=O)O)cc3)c2c(=O)[nH]1` [PTX, pemetrexed], for which the “fold changes relative to vehicle control” value is recorded as 0.87 in assay [1], 0.94 in assay [2], 0.99 in assay [3] and 1.01 in assay [4].
As for `Nc1nc2c(c(=O)[nH]1)N(C=O)C(CNc1ccc(C(=O)N[C@@H](CCC(=O)O)C(=O)O)cc1)CN2` (stereo partly shown) [LEU, leucovorin], the “fold changes relative to vehicle control” value in assay [1] (protein NOLC1, HeLa) worked out at 0.93; in assay [2] (protein RPLP2, HeLa), 0.82; in assay [3] (HeLa, protein UNC45A) it was 1.07; in assay [4] (HeLa, protein ECH1), 1.04.
In the case of `CCCCCCOc1ccc(Cc2cnc(N)nc2N)cc1` [compound 1], the “fold changes relative to vehicle control” value in assay [1] (protein NOLC1, HeLa) came to 0.9; in assay [2] (protein RPLP2, HeLa), 0.76; in assay [3] (protein UNC45A, HeLa), 1.44; in assay [4] (HeLa, protein ECH1), 0.95.
Turning to `NCCCNc1ccc(C(=O)NC(CCC(=O)O)C(=O)O)cc1` (stereo not shown) [compound 7], the “fold changes relative to vehicle control” value in assay [1] (protein NOLC1, HeLa) is listed as 0.9; in assay [2] (protein RPLP2, HeLa), 0.82; in assay [3] (HeLa, protein UNC45A) it was 1.05; in assay [4] (HeLa, protein ECH1), 0.99.
As for `CCCCCCOc1cccc(Cc2cnc(N)nc2N)c1` [compound 2], the “fold changes relative to vehicle control” value in assay [1] (protein NOLC1, HeLa) is given as 1.44; in assay [2] (protein RPLP2, HeLa) it was 1.65; in assay [3] (protein UNC45A, HeLa), 1.53; in assay [4] (HeLa, protein ECH1), 0.91.
